In the OligoGym collection one finds target mRNA inhibition data, which are given here for 60 sequences.

“And” between values parts separate entries of the source, which are not always exact repeats. Identical values can stand only once. After the bases stand the sugars from the 5' end (letter, count) and the backbone: PS all phosphorothioate, else s phosphorothioate and o phosphodiester by linkage. Methylation of C is not given here. e = 2'-O-(2-methoxyethyl) (MOE); k = constrained ethyl (cEt); d = 2'-deoxy (DNA)

The target of this data set is APOL1. The settings on record: ASO.

In the case of CCTTAATGTAAATTCC (sugars k4 d9 k3, PS), the target mRNA inhibition runs as follows: (A431, 0.0625 µM) 32%; (A431, 0.25 µM) 61%; (A431, 1 µM) 80%.

As to CCTTACTGCAGTTTCA (sugars k4 d9 k3, PS), the target mRNA inhibition by setting is: (A431, 0.0625 µM) 47%; (A431, 0.25 µM) 79%; (A431, 1 µM) 91%.

For the sequence CGATTGTCTTGTTTTT (sugars k4 d9 k3, PS), the target mRNA inhibition was 70% and 79% (A431, 0.0625 µM); 90% and 88% (A431, 0.25 µM); 97% and 94% (A431, 1 µM).

The sequence “CGCAATGCTGACTTGG (sugars k2 d4 e4 k2 d4, PS)” returned a target mRNA inhibition (A431, 2 µM) of 68%.

For “CGTCAATATATTCTTT (sugars k2 d4 e3 k2 d5, PS)”, the target mRNA inhibition (A431, 2 µM) is 81%.

Consider “CGTCAATATATTCTTT (sugars k3 d5 k3 d5, PS)”, for which the target mRNA inhibition (A431, 0.0156 µM) stood at 38%; the target mRNA inhibition (A431, 0.0625 µM) was 56% and 62%; the target mRNA inhibition (A431, 0.25 µM) was 84% and 87%; the target mRNA inhibition (A431, 1 µM) stood at 93%; the target mRNA inhibition (A431, 2 µM) was 94%.

Regarding “CGTCAATATATTCTTT (sugars kddddkekekeddddd, PS)”, the target mRNA inhibition worked out at 0% (A431, 0.0156 µM); 46% (A431, 0.0625 µM); 78% (A431, 0.25 µM); 90% (A431, 1 µM); 96% (A431, 2 µM).

Take “CGTCAATATATTCTTT (sugars kekddddeekkddddd, PS)”: under “A431, 2 µM”, the target mRNA inhibition worked out at 93%.

As for “CGTCAATATATTCTTT (sugars kkddddkekekkdddd, PS)”, the target mRNA inhibition reads like this: (A431, 0.0156 µM) 3%; (A431, 0.0625 µM) 36%; (A431, 0.25 µM) 70%; (A431, 1 µM) 88%; (A431, 2 µM) 95%.

On to “CGTGTTATATTTGATC (sugars kkddddkekekddddd, PS)”, for which, for the setting “A431, 2 µM”, the target mRNA inhibition is 88%.

For “CTAATTTTCTGACTGT (sugars k3 d4 k3 e1 d5, PS)”, the target mRNA inhibition (A431, 0.0156 µM) was found to be 35%; the target mRNA inhibition (A431, 0.04 µM) was found to be 59%; the target mRNA inhibition (A431, 0.0625 µM) worked out at 69%; the target mRNA inhibition (A431, 0.25 µM) is 88%; the target mRNA inhibition (A431, 1 µM) is 99% and 96%; the target mRNA inhibition (A431, 2 µM) stood at 99%.

Turning to “CTAATTTTCTGACTGT (sugars kkddddkekekddddd, PS)”, the target mRNA inhibition (A431, 2 µM) amounted to 83%.

“CTGTTCTAACTCTTGG (sugars k2 d4 e3 k2 d5, PS)” registered a target mRNA inhibition (A431, 2 µM) of 93%.

With “CTGTTCTAACTCTTGG (sugars kkkddddkekekdddd, PS)”, under “A431, 2 µM”, the target mRNA inhibition came to 88%.

For the sequence CTTGTTTTATGGAGTC (sugars k4 d9 k3, PS), the target mRNA inhibition is, setting by setting: (A431, 0.0625 µM) 85% and 91%; (A431, 0.25 µM) 97%; (A431, 1 µM) 99%.

As for “CTTTAAACTCAGGTGA (sugars k2 d4 e3 k2 d5, PS)”, the target mRNA inhibition runs as follows: (A431, 0.0156 µM) 19%; (A431, 0.0625 µM) 40%; (A431, 0.25 µM) 61%; (A431, 1 µM) 85%; (A431, 2 µM) 92%.

Where the note is “A431, 2 µM”, “CTTTAAACTCAGGTGA (sugars kdddddkekekddddd, PS)” gave a target mRNA inhibition of 77%.

As to “CTTTAAACTCAGGTGA (sugars kkddddekekeddddd, PS)”, for the setting “A431, 2 µM”, the target mRNA inhibition was 91%.

With “CTTTAAACTCAGGTGA (sugars kkddddkekekddddd, PS)”, the target mRNA inhibition (A431, 2 µM) was 82%.

Regarding “CTTTATACCAGTGTCT (sugars k3 d4 k3 e1 d5, PS)”, the target mRNA inhibition runs as follows: (A431, 0.0156 µM) 19%; (A431, 0.0625 µM) 54%; (A431, 0.25 µM) 78%; (A431, 1 µM) 91%; (A431, 2 µM) 95%.

“CTTTATACCAGTGTCT (sugars kdddddkekekddddd, PS)”: the target mRNA inhibition (A431, 2 µM) came to 89%.

As for “CTTTATACCAGTGTCT (sugars kddddkekekeddddd, PS)”, the target mRNA inhibition (A431, 2 µM) was 92%.

For the setting “A431, 2 µM”, “CTTTATACCAGTGTCT (sugars kkddddkekekkdddd, PS)” registered a target mRNA inhibition of 87%.

Turning to “CTTTATACCAGTGTCT (sugars kkkddddkekeddddd, PS)”, for the setting “A431, 2 µM”, the target mRNA inhibition was found to be 94%.

As to “CTTTATACCAGTGTCT (sugars kkkddddkekekdddd, PS)”, for the setting “A431, 2 µM”, the target mRNA inhibition is 76%.

On to GAAAATATCAGAGTGT (sugars k4 d9 k3, PS), for which the target mRNA inhibition (A431, 0.0625 µM) amounted to 29%; the target mRNA inhibition (A431, 0.25 µM) was found to be 68%; the target mRNA inhibition (A431, 1 µM) came to 90%.

For “GAACGCAATGCTGACT (sugars kkddddkekekddddd, PS)”, where the note is “A431, 2 µM”, the target mRNA inhibition stood at 78%.

Sequence “GAAGATTGGCTCTGGC (sugars kdddddkekekddddd, PS)” had a target mRNA inhibition (A431, 2 µM) of 44%.

Under “A431, 2 µM”, “GAAGATTGGCTCTGGC (sugars kkdddddkekeddddd, PS)” came in with a target mRNA inhibition of 70%.

“GAAGATTGGCTCTGGC (sugars kkddddkdkdkddddd, PS)” gave a target mRNA inhibition (A431, 2 µM) of 79%.

As to GAAGCTTTAAACTCAG (sugars k4 d9 k3, PS), the target mRNA inhibition runs as follows: (A431, 0.0625 µM) 41%; (A431, 0.25 µM) 65%; (A431, 1 µM) 82%.

On to “GAAGCTTTAAACTCAG (sugars kkddddekekeddddd, PS)”, for which, under “A431, 2 µM”, the target mRNA inhibition was found to be 62%.

Consider “GAAGCTTTAAACTCAG (sugars kkkddddkekekdddd, PS)”, for which the target mRNA inhibition (A431, 2 µM) turned out to be 47%.

“GAATTATGGAATTGCA (sugars k2 d4 e3 k2 d5, PS)”: the target mRNA inhibition (A431, 2 µM) was 94%.

Consider “GAATTATGGAATTGCA (sugars kkdddddkekeddddd, PS)”, for which the target mRNA inhibition is, setting by setting: (A431, 0.0156 µM) 17%; (A431, 0.0625 µM) 38%; (A431, 0.25 µM) 75%; (A431, 1 µM) 86%; (A431, 2 µM) 92%.

As to GACTTGTTTTATGGAG (sugars k4 d9 k3, PS), the target mRNA inhibition amounted to 75% (A431, 0.0625 µM); 88% (A431, 0.25 µM); 92% (A431, 1 µM).

As to “GAGTATTGTTTTTGTG (sugars k2 d4 e3 k2 d5, PS)”, the target mRNA inhibition turned out to be 38% (A431, 0.0156 µM); 72% (A431, 0.0625 µM); 91% (A431, 0.25 µM); 96% (A431, 1 µM); 97% (A431, 2 µM).

Consider “GAGTATTGTTTTTGTG (sugars kdddddkekekddddd, PS)”, for which the target mRNA inhibition (A431, 2 µM) worked out at 90%.

For the sequence “GAGTATTGTTTTTGTG (sugars kddddkekekeddddd, PS)”, the target mRNA inhibition (A431, 2 µM) turned out to be 94%.

Regarding GATGGGTACTTCTGTT (sugars k4 d9 k3, PS), the target mRNA inhibition reads like this: (A431, 0.0625 µM) 63%; (A431, 0.25 µM) 82%; (A431, 1 µM) 90%.

In the case of GATTTTTCTTTGACCG (sugars k4 d9 k3, PS), the target mRNA inhibition was 80% and 81% (A431, 0.0625 µM); 95% and 94% (A431, 0.25 µM); 99% and 98% (A431, 1 µM).

Regarding “GCATTCAGAATTTCCA (sugars k2 d4 e3 k2 d5, PS)”, the target mRNA inhibition runs as follows: (A431, 0.0156 µM) 39%; (A431, 0.0625 µM) 72%; (A431, 0.25 µM) 91%; (A431, 1 µM) 97%; (A431, 2 µM) 98%.

With GCGATTGTCTTGTTTT (sugars k4 d9 k3, PS), the target mRNA inhibition (A431, 0.0625 µM) was 64% and 78%; the target mRNA inhibition (A431, 0.25 µM) is 87% and 89%; the target mRNA inhibition (A431, 1 µM) was found to be 93%.

On to “GCTAATTTTCTGACTG (sugars kddddkekekeddddd, PS)”, for which, under “A431, 2 µM”, the target mRNA inhibition amounted to 88%.

In the case of “GCTAATTTTCTGACTG (sugars kkkddddkekeddddd, PS)”, the target mRNA inhibition was 10% (A431, 0.0156 µM); 42% (A431, 0.0625 µM); 70% (A431, 0.25 µM); 87% (A431, 1 µM); 93% (A431, 2 µM).

On to “GCTTTAAACTCAGGTG (sugars kddddkekekeddddd, PS)”, for which the target mRNA inhibition (A431, 2 µM) worked out at 67%.

For the sequence “GCTTTAAACTCAGGTG (sugars kkddddkdkdkddddd, PS)”, the target mRNA inhibition was determined as 25% (A431, 0.0156 µM); 63% (A431, 0.0625 µM); 83% (A431, 0.25 µM); 94% (A431, 1 µM); 96% (A431, 2 µM).

For “GGAATTATGGAATTGC (sugars k2 d4 e3 k2 d5, PS)”, the target mRNA inhibition was 8% (A431, 0.0156 µM); 38% (A431, 0.0625 µM); 84% (A431, 0.25 µM); 96% (A431, 1 µM); 99% (A431, 2 µM).

With “GGAATTATGGAATTGC (sugars kdddddkekekddddd, PS)”, under “A431, 2 µM”, the target mRNA inhibition amounted to 92%.

“GGAATTATGGAATTGC (sugars kddddkekekeddddd, PS)” showed a target mRNA inhibition (A431, 2 µM) of 88%.

With “GGAATTATGGAATTGC (sugars kkdddddkekeddddd, PS)”, the target mRNA inhibition (A431, 2 µM) is 40%.

Under “A431, 2 µM”, “GGAATTATGGAATTGC (sugars kkddddkekekkdddd, PS)” had a target mRNA inhibition of 74%.

With GGACATTGAACCTGGG (sugars k4 d9 k3, PS), the target mRNA inhibition reads like this: (A431, 0.0625 µM) 50%; (A431, 0.25 µM) 78%; (A431, 1 µM) 86%.

GGCCGTGTCACCCTAA (sugars k4 d9 k3, PS): the target mRNA inhibition by setting is: (A431, 0.0625 µM) 51%; (A431, 0.25 µM) 45%; (A431, 1 µM) 52%.

“GGGAATTATGGAATTG (sugars kkkddddkekeddddd, PS)” came in with a target mRNA inhibition (A431, 2 µM) of 63%.

Turning to GGGTCAAAAGCGATGG (sugars k4 d9 k3, PS), the target mRNA inhibition was found to be 50% (A431, 0.0625 µM); 79% (A431, 0.25 µM); 88% (A431, 1 µM).

Under “A431, 2 µM”, “GGTTATGAAATTATTG (sugars k3 d4 k3 e1 d5, PS)” yielded a target mRNA inhibition of 91%.

The sequence “GTAAGTATTGCCAGCT (sugars kkddddekekeddddd, PS)” registered a target mRNA inhibition (A431, 2 µM) of 69%.

“GTAAGTATTGCCAGCT (sugars kkddddkekekddddd, PS)” displayed a target mRNA inhibition (A431, 2 µM) of 53%.

For the sequence GTAAGTGCTTTGATTC (sugars k4 d9 k3, PS), the target mRNA inhibition is, setting by setting: (A431, 0.0625 µM) 64%; (A431, 0.25 µM) 83%; (A431, 1 µM) 92%.
